From patent publication US11382871B2 (BRIU GmbH, priority 2012, dated 2022)
Like-named read-outs stand apart in the source and are kept apart here.

Key:
[1] = cited from earlier work; for Solubility: solvents as named in the cell, in water, hexane, ether
[2] = compared with Cisplatin; cited from earlier work
IKK = details: cited from earlier work
tumor = details: compared with Cisplatin; cited from earlier work
cell death = details: compared with curcumin; cited from earlier work
[3] = compared with curcumin; cited from earlier work
[4] = compared with curcumin; cited from earlier work; remark: listed apart in the source
plasma protein = experiment: Behaviour of curcumin in the blood stream (plasma protein binding); type: in vitro ADME; details: higher physiological pH of blood
Description: Since the hydroxyl groups are present in undissociated form when the pH is acidic, the curcuminoids' stability is greater in this environment.

Question: For O=C(/C=C/c1ccc(O)cc1)CC(=O)/C=C/c1ccc(O)cc1 [Bisdemethoxy-CUR, Bis-4-hydroxycinnamoyl methane], which Solubility [1] is on record?
Answer: Insoluble in water, hexane, ether;

Question: With COc1cc(/C=C/C(=O)CC(=O)/C=C/c2ccc(O)cc2)ccc1O [Demethoxy-CUR, 4-Hydroxycinnamoyl feruloyl methane] as the molecule, how does the Solubility [1] read?
Answer: Insoluble in water, hexane, ether;

Question: Which results are given for Cl.O=C1/C(=C/c2ccccc2F)CNC/C1=C\c1ccccc1F [EF-24]?
Answer: Potential of inducing adverse effects [2]: significantly lower potential of inducing adverse effects; IKK inhibition (IKK): IKK inhibitor; Effectiveness in anti-tumor screening (tumor): more effective than Cisplatin; Potency in inducing cell death relative to curcumin (cell death): 10 times; Bioavailability [3]: considerably higher bioavailability; Potency relative to curcumin [4]: more potent than curcumin

Question: With COc1cc(/C=C/C(=O)CC(=O)/C=C/c2ccc(O)c(OC)c2)ccc1O [curcumin, Diferuloylmethane] as the molecule, how does the Solubility ([1]; listed as CUR) read?
Answer: Insoluble in water, hexane, ether;

Question: And the Solubility in water ([1]; water)?
Answer: insoluble in water

Question: What about the “Plasma protein binding on entering the blood stream” value (plasma protein) of the same molecule?
Answer: binds to plasma protein
